In brackets after ≈: the same amount, converted by molar mass.
What was measured:
[1] = system: MIA-PaCa2 pancreas tumor cell line; assay: tumor cell proliferation test (EZ4U tetrazolium), MIA-PaCa2; assay type: cell-based; details: Homo sapiens, MIA PaCa-2, 96 h, 4 days, read-out: inhibition of cellular proliferation; for inhibition at 200 µg/mL: MIA-PaCa2, 200 μg/ml; for inhibition at 400 µg/mL: MIA-PaCa2, 400 μg/ml
Protocol: (§1) The compounds of the invention were tested using the pancreas tumor cell lines MIYPaCa2 and BxPC3, the breast cancer cell lines MDA-MB-435 and BT20, as well as the colon cancer cell lines Colo205 and HT29. The cells were placed in culture medium (RPMI-1640 with 10% fetal calf serum and 4 mM glutamine) in 96-well microtiter plates to make 10,000 cells per well. The inventive components to be tested were diluted in microtiter plates according to the well-known procedure and incubated for 4 days under cell culture conditions (37° C., 5% CO2).
(§2) Following incubation, the proliferation was tested using a tetrazolium-based EZ4U kit from Biomedica (Vienna, Austria). The optical density (OD) of each well was determined by means of an ELISA Reader, and the control medium obtained was set to 100% (OD490 nm=0.5 to 1.5). The values in Table 1 are given in %, showing the inhibition of cellular proliferation, the concentration being 400 μg/ml (higher value) and 200 μg/ml (lower value).
(§3) Furthermore, (R)-(+)-α,α-diphenyl-2-pyrrolidinemethanol and (S)-(−)-α,α-diphenyl-2-pyrrolidinemethanol were tested. […] The results are given as IC50 (μg/ml).

[2] = system: Colo205 colon cancer cell line; assay: tumor cell proliferation test (EZ4U tetrazolium), Colo205; assay type: cell-based; details: Homo sapiens; for inhibition at 200 µg/mL / inhibition at 400 µg/mL: COLO 205, 96 h, 4 days, read-out: inhibition of cellular proliferation; for inhibition at 200 µg/mL: Colo205, 200 μg/ml; for inhibition at 400 µg/mL: Colo205, 400 μg/ml; for IC50: COLO 205, substances dissolved in water, read-out: IC50 Colo205
Protocol: as §1, §2
(§4) In further tests, substances were dissolved in water, and their effect on the colon adenocarcinoma cell line Colo205 and pancreas adenocarcinoma cell line BxPC3 as targets was tested. The results obtained, in IC50 concentrations in μg/ml, are illustrated in Table 2.
A proliferation test—as described above—with an initial dilution of 400 μg/ml was carried out, either alone or in combination with 400, 200 or 100 μg of CHP. The cell lines used are illustrated in Table 3. […] Frequently, the proliferation is increased, or the inhibition achieved with specific substances is lower when using combined agents. The effect of CHP alone is shown on the left in the table, below each specified cell line, for the highest concentration of CHP (400 μg/ml).
as §3

[3] = system: BxPC3 pancreas tumor cell line; assay: tumor cell proliferation test (EZ4U tetrazolium), BxPC3; assay type: cell-based; details: Homo sapiens; for inhibition at 200 µg/mL / inhibition at 400 µg/mL: BXPC-3, 96 h, 4 days, read-out: inhibition of cellular proliferation; for inhibition at 200 µg/mL: BxPC3, 200 μg/ml; for inhibition at 400 µg/mL: BxPC3, 400 μg/ml; for IC50: BXPC-3, substances dissolved in water, read-out: IC50 BxPC3
Protocol: as §1, §2, §4, §3

[4] = system: MDA-MB435 breast cancer cell line; assay: tumor cell proliferation test (EZ4U tetrazolium), MDA-MB435; assay type: cell-based; details: Homo sapiens, MDA-MB-435, 96 h, 4 days, read-out: inhibition of cellular proliferation; for inhibition at 200 µg/mL: MDA-MB435, 200 μg/ml; for inhibition at 400 µg/mL: MDA-MB435, 400 μg/ml
Protocol: as §1, §2

[5] = system: BT20 breast cancer cell line; assay: tumor cell proliferation test (EZ4U tetrazolium), BT20; assay type: cell-based; details: Homo sapiens, BT-20, 96 h, 4 days, read-out: inhibition of cellular proliferation; for inhibition at 200 µg/mL: BT20, 200 μg/ml; for inhibition at 400 µg/mL: BT20, 400 μg/ml
Protocol: as §1, §2

[6] = system: HT29 colon cancer cell line; assay: tumor cell proliferation test (EZ4U tetrazolium), HT29; assay type: cell-based; details: Homo sapiens, HT-29, 96 h, 4 days, read-out: inhibition of cellular proliferation; for inhibition at 200 µg/mL: HT29, 200 μg/ml; for inhibition at 400 µg/mL: HT29, 400 μg/ml
Protocol: as §1, §2

[7] = system: all 6 cell lines (MIA-PaCa2, Colo205, BxPC3, MDA-MB435, BT20, HT29); assay: tumor cell proliferation test, mean value for all 6 cell lines; assay type: cell-based; details: 400 μg/ml; read-out: inhibition; mean value±SEM for all 6 cell lines
Protocol: as §1, §2

Row | IC50 [2] | IC50 [3] | melting point | Compound | inhibition at 200 µg/mL [1] | inhibition at 400 µg/mL [1] | inhibition at 200 µg/mL [2] | inhibition at 400 µg/mL [2] | inhibition at 200 µg/mL [3] | inhibition at 400 µg/mL [3] | inhibition at 200 µg/mL [4] | inhibition at 400 µg/mL [4] | inhibition at 200 µg/mL [5] | inhibition at 400 µg/mL [5] | inhibition at 200 µg/mL [6] | inhibition at 400 µg/mL [6] | inhibition at 400 µg/mL [7]
1 | 18 µg/mL | 15 µg/mL (≈ 80.1 µM) | 139 °C | CC(C)COC(=O)C1CC(O)CN1 [Substance A2, cis-hydroxy-L-proline isobutyl ester] |  |  |  |  |  |  |  |  |  |  |  |  | 
2 | 50 µg/mL | 5 µg/mL (≈ 31.4 µM) |  | CCOC(=O)C1CC(O)CN1 [Substance A-1, cis-hydroxy-L-proline ethyl ester] |  |  |  |  |  |  |  |  |  |  |  |  | 

The next lines start with the compound.

Row | Compound | IC50 [2] | IC50 [3] | melting point | inhibition at 200 µg/mL [1] | inhibition at 400 µg/mL [1] | inhibition at 200 µg/mL [2] | inhibition at 400 µg/mL [2] | inhibition at 200 µg/mL [3] | inhibition at 400 µg/mL [3] | inhibition at 200 µg/mL [4] | inhibition at 400 µg/mL [4] | inhibition at 200 µg/mL [5] | inhibition at 400 µg/mL [5] | inhibition at 200 µg/mL [6] | inhibition at 400 µg/mL [6] | inhibition at 400 µg/mL [7]
3 | CCOC(=O)[C@@H]1CC(OC(=O)Nc2ccccc2)CN1C (stereo partly drawn) [Substance A1.23, 1-methyl-4-phenylaminocarbonyloxyproline ethyl ester] |  |  |  | 16% | 8.3% | 17.2% | 7.3% | 17.8% | 0% | 8.7% | 4.5% | 4.4% | 1.3% | 8.5% | 1.9% | < 8%
4 | CC(C)COC(=O)[C@@H]1CC(O)CN1C1CCCCC1 (stereo partly drawn) [Substance A2-03, 4-hydroxy-1-cyclohexylproline isobutyl ester] | 50 µg/mL | 50 µg/mL (≈ 186 µM) |  |  |  |  |  |  |  |  |  |  |  |  |  | 
5 | Br.CC(C)COC(=O)[C@@H]1CC(O)CN1C(c1ccccc1)c1ccccc1 (stereo partly drawn) [Substance A2-04, 4-hydroxy-1-diphenylmethylproline isobutyl ester hydrobromide] | 6.2 µg/mL | 12 µg/mL |  |  |  |  |  |  |  |  |  |  |  |  |  | 
6 | CC(C)COC(=O)[C@@H]1CC(O)CN1C (stereo partly drawn) [Substance A2.21, 4-hydroxy-1-methylproline isobutyl ester] |  |  |  | 4.5% | 23.9% | 14.1% | 10% | 18.2% | 4.9% | 4.5% | 3.1% | 5.2% | 3.9% | 4.1% | 1.3% | < 8%
7 | CC(C)COC(=O)[C@@H]1CC(OC(=O)Nc2ccccc2)CN1C (stereo partly drawn) [Substance A2.23, 1-methyl-4-phenylaminocarbonyloxyproline isobutyl ester] |  |  |  | 14.2% | 0.3% | 19.2% | 14.1% | 15.4% | 2.1% | 5.5% | 8.6% | 0% | 0% | -5% | -5.3% | < 8%
